Test results reported in patent US20250340560A1, “SUBSTITUTED PYRAZOLO[1,5-a]PYRIMIDINES AS BRUTON'S TYROSINE KINASE MODULATORS” (BEIGENE SWITZERLAND GMBH, priority 2013, published 2025).
Where a name gives a salt, the structure may show the parent alone.

biological target: Recombinant Btk (Homo sapiens (Human), UniProt Q06187); assay: BTK kinase assay (TR-FRET); conditions: IC50 (nM) Btk, 1 hour pre-incubation, ATP at Km
Sequence (Q06187 whole entry): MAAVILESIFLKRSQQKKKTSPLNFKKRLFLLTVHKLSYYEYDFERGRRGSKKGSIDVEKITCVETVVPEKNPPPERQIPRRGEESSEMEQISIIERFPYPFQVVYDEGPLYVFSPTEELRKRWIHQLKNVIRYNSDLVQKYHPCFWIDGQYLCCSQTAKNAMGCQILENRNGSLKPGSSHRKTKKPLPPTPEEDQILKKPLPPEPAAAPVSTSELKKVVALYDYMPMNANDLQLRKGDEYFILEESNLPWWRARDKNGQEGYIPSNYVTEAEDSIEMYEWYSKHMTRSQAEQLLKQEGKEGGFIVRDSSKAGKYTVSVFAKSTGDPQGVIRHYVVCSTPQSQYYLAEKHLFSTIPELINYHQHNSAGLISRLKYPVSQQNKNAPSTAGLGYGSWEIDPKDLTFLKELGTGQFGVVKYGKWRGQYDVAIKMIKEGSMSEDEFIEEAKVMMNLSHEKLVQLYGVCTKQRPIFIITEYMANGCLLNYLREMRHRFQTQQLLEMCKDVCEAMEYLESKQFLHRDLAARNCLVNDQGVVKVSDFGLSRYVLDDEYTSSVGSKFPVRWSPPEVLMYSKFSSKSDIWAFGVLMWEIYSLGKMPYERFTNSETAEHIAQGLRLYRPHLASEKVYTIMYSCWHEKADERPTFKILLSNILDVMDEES

Row | SMILES | IC50
1 | C=CC(=O)Nc1ccccc1C1CCNc2c(C(N)=O)c(-c3ccc(OCc4ccccc4)cc3)nn21 (single isomer, unassigned) [Compound 10b] | 42 nM

same assay, conditions: read-out: IC50 (nM) Btk; 1 hour pre-incubation, ATP at Km

Row | SMILES | IC50
2 | CCC#CC(=O)N1CCC([C@@H]2CCNc3c(C(N)=O)c(-c4ccc(Oc5ccccc5)cc4)nn32)CC1 [Compound 186, (S)-7-(1-(Pent-2-ynoyl)piperidin-4-yl)-2-(4-phenoxyphenyl)-4,5,6,7-tetrahydropyrazolo[1,5-a]pyrimidine-3-carboxamide] | 1.1 nM
3 | NC(=O)c1c(-c2ccc(OC3CCCC3)cc2)nn2c1NCCC2c1ccccc1N (stereo not shown) [Compound 17, 7-(2-Aminophenyl)-2-(4-(cyclopentyloxy)phenyl)-4,5,6,7-tetrahydro pyrazolo[1,5-a]pyrimidine-3-carboxamide] | > 10000 nM
4 | CN(C)CCC(=O)N1CCc2[nH]c3c(C(N)=O)c(-c4ccc(Oc5ccccc5)cc4)nn3c2C1 [Compound 57, 7-(3-(Dimethylamino)propanoyl)-2-(4-phenoxyphenyl)-5,6,7,8-tetrahydro-4H-pyrazolo[5′,1′:2,3]imidazo[4,5-c]pyridine-3-carboxamide trifluoroacetate] | 37 nM
5 | CNCC1CCNc2c(C(N)=O)c(-c3ccc(Oc4ccccc4)cc3)nn21 (stereo not shown) [Compound 34, 7-((Methylamino)methyl)-2-(4-phenoxyphenyl)-4,5,6,7-tetrahydro pyrazolo[1,5-a]pyrimidine-3-carboxamide] | 1900 nM
6 | NC(=O)c1c(-c2ccc(Oc3ccccc3)cc2)nn2c1NCC21CN(Cc2ccccc2)C1 [Compound 44, 1-Benzyl-6′-(4-phenoxyphenyl)-1′,2′-dihydrospiro[azetidine-3,3′-imidazo[1,2-b]pyrazole]-7′-carboxamide] | 220 nM
7 | NC(=O)c1c(-c2ccc(Oc3ccccc3)cc2)nn2c1NCC(N)C2 (stereo not shown) [Compound 84, 6-Amino-2-(4-phenoxyphenyl)-4,5,6,7-tetrahydropyrazolo[1,5-a]pyrimidine-3-carboxamide] | 2900 nM
8 | C=CC(=O)Nc1ccccc1C1CCNc2c(C(N)=O)c(-c3ccc(C(F)(F)F)c(Cl)c3)nn21 (stereo not shown) [Compound 162, 7-(2-Acrylamidophenyl)-2-(3-chloro-4-(trifluoromethyl)phenyl)-4,5,6,7-tetrahydropyrazolo[1,5-a]pyrimidine-3-carboxamide] | 2.1 nM
9 | C=CC(=O)Nc1ccccc1C1CCNc2c(C(N)=O)c(-c3ccc(Cl)c(F)c3)nn21 (stereo not shown) [Compound 154, 7-(2-Acrylamidophenyl)-2-(4-chloro-3-fluorophenyl)-4,5,6,7-tetrahydropyrazolo[1,5-a]pyrimidine-3-carboxamide] | 1.2 nM
10 | C=CC(=O)Nc1ccccc1C1CCNc2c(C(N)=O)c(-c3cc(Cl)c(OC)c(Cl)c3)nn21 (stereo not shown) [Compound 169, 7-(2-Acrylamidophenyl)-2-(3,5-dichloro-4-methoxyphenyl)-4,5,6,7-tetrahydropyrazolo[1,5-a]pyrimidine-3-carboxamide] | 0.15 nM
11 | NC(=O)c1c(-c2ccc(Oc3ccccc3)cc2)nn2c1NCCC2c1ccccn1 (stereo not shown) [Compound 102, 2-(4-phenoxyphenyl)-7-(pyridin-2-yl)-4,5,6,7-tetrahydropyrazolo[1,5-a]pyrimidine-3-carboxamide] | 830 nM
12 | C=CC(=O)N1CC2(CNc3c(C(N)=O)c(-c4ccc(Oc5ccccc5)cc4)nn3C2)C1 [Compound 88, 1-Acryloyl-2′-(4-phenoxyphenyl)-5′,7′-dihydro-4′H-spiro[azetidine-3,6′-pyrazolo[1,5-a]pyrimidine]-3′-carboxamide] | 16 nM
13 | COc1ccc(-c2nn3c(c2C(N)=O)NCCC3c2ccccc2N)cc1 (stereo not shown) [Compound 93, 7-(2-Aminophenyl)-2-(4-methoxyphenyl)-4,5,6,7-tetrahydropyrazolo[1,5-a]pyrimidine-3-carboxamide] | 1500 nM
14 | COCCOc1ccc(-c2nn3c(c2C(N)=O)NCCC3c2ccccc2N)cc1 (stereo not shown) [Compound 21, 7-(2-Aminophenyl)-2-(4-(2-methoxyethoxy)phenyl)-4,5,6,7-tetrahydropyrazolo[1,5-a]pyrimidine-3-carboxamide] | > 10000 nM
15 | NC(=O)c1c(-c2ccc(Oc3ccccc3)cc2)nn2c3c([nH]c12)CCN(C(=O)CCCl)C3 [Compound 53, 7-(3-Chloropropanoyl)-2-(4-phenoxyphenyl)-5,6,7,8-tetrahydro-4H-pyrazolo[5′,1′:2,3]imidazo[4,5-c]pyridine-3-carboxamide] | 7.7 nM
16 | CC#CC(=O)N1CCC(C2CCNc3c(C(N)=O)c(-c4ccc(Oc5ccc(F)cc5)cc4)nn32)CC1 (stereo not shown) [Compound 194, 7-(1-(But-2-ynoyl)piperidin-4-yl)-2-(4-(4-fluorophenoxy)phenyl)-4,5,6,7-tetrahydropyrazolo[1,5-a]pyrimidine-3-carboxamide] | 45 nM
17 | CC#CC(=O)N1CC(C2CCNc3c(C(N)=O)c(-c4ccc(Oc5ccc(F)cc5F)cc4)nn32)C1 (stereo not shown) [Compound 189, 7-(1-(But-2-ynoyl)azetidin-3-yl)-2-(4-(2,4-difluorophenoxy)phenyl)-4,5,6,7-tetrahydropyrazolo[1,5-a]pyrimidine-3-carboxamide] | 42 nM
18 | NCC1CCNc2c(C(N)=O)c(-c3ccc(Oc4ccccc4)cc3)nn21 (stereo not shown) [Compound 32, 7-(Aminomethyl)-2-(4-phenoxyphenyl)-4,5,6,7-tetrahydropyrazolo [1,5-a]pyrimidine-3-carboxamide] | 1700 nM

Row | SMILES | IC50
19 | C=CC(=O)Nc1cc(C)ccc1C1CCNc2c(C(N)=O)c(-c3ccc(OCC4CC4)cc3)nn21 (stereo not shown) [Compound 148, 7-(2-Acrylamido-4-methylphenyl)-2-(4-(cyclopropylmethoxy)phenyl)-4,5,6,7-tetrahydropyrazolo[1,5-a]pyrimidine-3-carboxamide] | 5.6 nM
20 | NC(=O)c1c(-c2ccc(OCC3CC3)cc2)nn2c1NCCC2c1ccccc1N (stereo not shown) [Compound 19, 7-(2-Aminophenyl)-2-(4-(cyclopropylmethoxy)phenyl)-4,5,6,7-tetrahydropyrazolo[1,5-a]pyrimidine-3-carboxamide] | 5300 nM
21 | NC(=O)c1c(-c2ccc(Oc3ccccc3)cc2)nn2c3c([nH]c12)CCNC3 [Compound 51, 2-(4-Phenoxyphenyl)-5,6,7,8-tetrahydro-4H-pyrazolo[5′,1′:2,3]imidazo[4,5-c]pyridine-3-carboxamide trifluoroacetate] | 310 nM
22 | C=CC(=O)Nc1ccccc1C1CCNc2c(C(N)=O)c(-c3ccc(F)c(Br)c3)nn21 (stereo not shown) [Compound 152, 7-(2-Acrylamidophenyl)-2-(3-bromo-4-fluorophenyl)-4,5,6,7-tetrahydropyrazolo[1,5-a]pyrimidine-3-carboxamide] | 1.2 nM
23 | NC(=O)c1c(-c2ccc(Oc3ccccc3)cc2)nn2c1NC(=O)C21CCNCC1 [Compound 82, 2-Oxo-6-(4-phenoxyphenyl)-1,2-dihydrospiro[imidazo[1,2-b]pyrazole-3,4′-piperidine]-7-carboxamide] | 3100 nM
24 | C=CC(=O)Nc1ccccc1C1CCNc2c(C(N)=O)c(-c3cc(F)c(F)c(Cl)c3)nn21 (stereo not shown) [Compound 158, 7-(2-Acrylamidophenyl)-2-(3-chloro-4.5-difluorophenyl)-4,5,6,7-tetrahydropyrazolo[1,5-a]pyrimidine-3-carboxamide] | 2.9 nM
25 | CN(C)C/C=C/C(=O)Nc1ccccc1C1CCNc2c(C(N)=O)c(-c3ccc(Oc4ccccc4)cc3)nn21 (stereo not shown) [Compound 92, (E)-7-(2-(4-(dimethylamino)but-2-enamido)phenyl)-2-(4-phenoxyphenyl)-4,5,6,7-tetrahydropyrazolo[1,5-a]pyrimidine-3-carboxamide] | 1.1 nM
26 | CCCC#CC(=O)N1CCC([C@@H]2CCNc3c(C(N)=O)c(-c4ccc(Oc5ccccc5)cc4)nn32)CC1 [Compound 193, (S)-7-(1-(Hex-2-ynoyl)piperidin-4-yl)-2-(4-phenoxyphenyl)-4,5,6,7-tetrahydropyrazolo[1,5-a]pyrimidine-3-carboxamide] | 3.9 nM
27 | NC(=O)c1c(-c2ccc(Oc3ccccc3)cc2)nn2c1NCC[C@H]2C1CCN(C(=O)CCCl)CC1 [Compound 177, (S)-7-(1-(3-chloropropanoyl)piperidin-4-yl)-2-(4-phenoxyphenyl)-4,5,6,7-tetrahydropyrazolo[1,5-a]pyrimidine-3-carboxamide] | 5.7 nM
28 | NC(=O)c1c(-c2ccc(Oc3ccccc3)cc2)nn2c1[nH]c1ccc([N+](=O)[O-])cc12 [Compound 65, 7-Nitro-2-(4-phenoxyphenyl)-4H-benzo[4,5]imidazo[1,2-b]pyrazole-3-carboxamide] | 320 nM
29 | NC(=O)c1c(-c2ccc(Oc3ccccc3)cc2)nn2c1NCC(c1cccc(N)c1)C2 (stereo not shown) [Compound 90, 6-(3-Aminophenyl)-2-(4-phenoxyphenyl)-4,5,6,7-tetrahydropyrazolo[1,5-a]pyrimidine-3-carboxamide] | 1900 nM
30 | C=CC(=O)Nc1ccccc1C1CCNc2c(C(N)=O)c(-c3ccc(Cl)c(OC)c3)nn21 (stereo not shown) [Compound 160, 7-(2-Acrylamidophenyl)-2-(4-chloro-3-methoxyphenyl)-4,5,6,7-tetrahydropyrazolo[1,5-a]pyrimidine-3-carboxamide] | 0.49 nM
31 | NC(=O)c1c(-c2ccc(OCc3ccccc3)cc2)nn2c3c([nH]c12)CCNC3 [Compound 125, 2-(4-(benzyloxy)phenyl)-5,6,7,8-tetrahydro-4H-pyrazolo[5′,1′:2,3]imidazo[4,5-c]pyridine-3-carboxamide formate] | 5000 nM
32 | C=CC(=O)N1CC(C2CCNc3c(C(N)=O)c(-c4ccc(Oc5ccccc5)c(Cl)c4)nn32)C1 (stereo not shown) [Compound 139, 7-(1-acryloylazetidin-3-yl)-2-(3-chloro-4-phenoxyphenyl)-4,5,6,7-tetrahydropyrazolo[1,5-a]pyrimidine-3-carboxamide] | 0.44 nM
33 | C=CC(=O)Nc1ccccc1C1CCNc2c(C(N)=O)c(-c3ccc(OCc4ccccn4)c(Cl)c3)nn21 (stereo not shown) [Compound 146, 7-(2-Acrylamidophenyl)-2-(3-chloro-4-(pyridin-2-ylmethoxy)phenyl)-4,5,6,7-tetrahydropyrazolo[1,5-a]pyrimidine-3-carboxamide] | 1.3 nM
34 | NC(=O)c1c(-c2ccc(Oc3ccccc3)cc2)nn2c1NCCC21CCN(Cc2ccccc2)CC1 [Compound 41, 1-Benzyl-2′-(4-phenoxyphenyl)-5′,6′-dihydro-4′H-spiro[piperidine-4,7′-pyrazolo[1,5-a]pyrimidine]-3′-carboxamide] | 180 nM
